# Results from PubChem BioAssay (NCI).
#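 All cell lines were grown in 96-well plates and treated with compound for 48 hours. Here, GI50 denotes the concentration required for 50% inhibition of growth. At the TGI there is no net growth.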
# Legend:
# Assay in all cases: NCI anticancer screen, dose series, 48 h
# [1] = tested on: SR leukemia
# [2] = tested on: K-562 leukemia
# [3] = tested on: MOLT-4 leukemia
# [4] = tested on: OVCAR-3 ovarian
# [5] = tested on: SK-MEL-28 melanoma
# [6] = tested on: RXF 393 renal
# [7] = tested on: NCI-H460 lung
# [8] = tested on: RPMI-8226 leukemia
# [9] = tested on: EKVX NSCLC
# [10] = tested on: SN12C renal
# [11] = tested on: UACC-62 melanoma
# [12] = tested on: 786-0 renal
# [13] = tested on: UACC-257 melanoma
# [14] = tested on: NCI-H226 lung
# [15] = tested on: A549 NSCLC
# [16] = tested on: NCI-H522 lung
# [17] = tested on: HCT-15 colon
# [18] = tested on: COLO 205 colon
# [19] = tested on: KM12 colon
# [20] = tested on: MDA-MB-435
# [21] = tested on: HOP-92 NSCLC
# [22] = tested on: HS 578T breast
# [23] = tested on: OVCAR-8 ovarian
# [24] = tested on: OVCAR-5 ovarian
# [25] = tested on: NCI-H23 lung
# [26] = tested on: UO-31 renal
# [27] = tested on: CAKI-1 renal
# [28] = tested on: MCF7 breast
# [29] = tested on: M14 melanoma
# [30] = tested on: SK-MEL-2 melanoma
# [31] = tested on: NCI/ADR-RES ovarian
# [32] = tested on: HT29 colon
# [33] = tested on: SK-MEL-5 melanoma
# [34] = tested on: SF-295 CNS
# [35] = tested on: HCC-2998 colon
# [36] = tested on: ACHN renal
# [37] = tested on: HL-60(TB) leukemia
# [38] = tested on: SW-620 colon
# [39] = tested on: HOP-62 NSCLC
# [40] = tested on: LOX IMVI melanoma
# [41] = tested on: SNB-19 CNS
# [42] = tested on: MDA-MB-231 breast
# [43] = tested on: SNB-75 CNS
# [44] = tested on: PC-3 prostate
# [45] = tested on: U251 CNS
# [46] = tested on: SF-539 CNS
# [47] = tested on: A498 renal
# [48] = tested on: MALME-3M melanoma
# [49] = tested on: DU-145 prostate
# [50] = tested on: IGROV1 ovarian
# [51] = tested on: HCT-116 colon
# [52] = tested on: CCRF-CEM leukemia
# [53] = tested on: BT-549 breast
# [54] = tested on: OVCAR-4 ovarian
# [55] = tested on: TK-10 renal
# [56] = tested on: T-47D breast
# [57] = tested on: SK-OV-3 ovarian
# [58] = tested on: SF-268 CNS
smiles,measurement,setting,value
Cc1cc(F)cc(NS(=O)(=O)c2ccc(-c3cnc(C4CC4)o3)cc2)c1,GI50,[1],46.4 nM
same,TGI,[1],5.91 µM
same,GI50,[2],49.4 nM
same,TGI,[2],12.3 µM
same,GI50,[3],366 nM
same,TGI,[3],15.4 µM
same,GI50,[4],52.3 nM
same,TGI,[4],11 µM
same,GI50,[5],1890 nM
same,TGI,[5],16.6 µM
same,GI50,[6],161 nM
same,TGI,[6],603 nM
same,GI50,[7],142 nM
same,TGI,[7],2030 nM
same,GI50,[8],179 nM
same,TGI,[8],1870 nM
same,GI50,[9],591 nM
same,TGI,[9],13.9 µM
same,GI50,[10],773 nM
same,TGI,[10],11.6 µM
same,GI50,[11],122 nM
same,TGI,[11],8.86 µM
same,GI50,[12],752 nM
same,TGI,[12],16.4 µM
same,GI50,[13],1770 nM
same,TGI,[13],12.1 µM
same,GI50,[14],489 nM
same,TGI,[14],7.82 µM
same,GI50,[15],662 nM
same,TGI,[15],14.3 µM
same,GI50,[16],372 nM
same,TGI,[16],10.8 µM
same,GI50,[17],83.6 nM
same,TGI,[17],11.4 µM
same,GI50,[18],246 nM
same,TGI,[18],1760 nM
same,GI50,[19],183 nM
same,TGI,[19],11.6 µM
same,GI50,[20],31.4 nM
same,TGI,[20],145 nM
same,GI50,[21],422 nM
same,TGI,[21],5.04 µM
same,GI50,[22],303 nM
same,TGI,[22],7.85 µM
same,GI50,[23],735 nM
same,TGI,[23],14.7 µM
same,GI50,[24],926 nM
same,TGI,[24],15.5 µM
same,GI50,[25],585 nM
same,TGI,[25],12.6 µM
same,GI50,[26],848 nM
same,TGI,[26],12.6 µM
same,GI50,[27],86.9 nM
same,TGI,[27],13.1 µM
same,GI50,[28],80.6 nM
same,TGI,[28],12.1 µM
same,GI50,[29],285 nM
same,TGI,[29],13 µM
same,GI50,[30],1030 nM
same,TGI,[30],15.5 µM
same,GI50,[31],120 nM
same,TGI,[31],5.29 µM
same,GI50,[32],105 nM
same,TGI,[32],12.2 µM
same,GI50,[33],266 nM
same,TGI,[33],1890 nM
same,GI50,[34],127 nM
same,TGI,[34],3.49 µM
same,GI50,[35],739 nM
same,TGI,[35],10.7 µM
same,GI50,[36],648 nM
same,TGI,[36],12.8 µM
same,GI50,[37],99.3 nM
same,TGI,[37],769 nM
same,GI50,[38],98.8 nM
same,TGI,[38],14.4 µM
same,GI50,[39],362 nM
same,TGI,[39],14.6 µM
same,GI50,[40],301 nM
same,TGI,[40],12.7 µM
same,GI50,[41],441 nM
same,TGI,[41],15 µM
same,GI50,[42],827 nM
same,TGI,[42],13.6 µM
same,GI50,[43],159 nM
same,TGI,[43],1570 nM
same,GI50,[44],342 nM
same,TGI,[44],12.3 µM
same,GI50,[45],451 nM
same,TGI,[45],14.5 µM
same,GI50,[46],271 nM
same,TGI,[46],2990 nM
same,GI50,[47],76.2 nM
same,TGI,[47],1010 nM
same,GI50,[48],837 nM
same,TGI,[48],20.9 µM
same,GI50,[49],421 nM
same,TGI,[49],13.8 µM
same,GI50,[50],252 nM
same,TGI,[50],13.6 µM
same,GI50,[51],225 nM
same,TGI,[51],10.9 µM
same,GI50,[52],199 nM
same,TGI,[52],13.5 µM
same,GI50,[53],1010 nM
same,TGI,[53],9.82 µM
same,GI50,[54],967 nM
same,TGI,[54],15.2 µM
same,GI50,[55],3.17 µM
same,TGI,[55],16.7 µM
same,GI50,[56],268 nM
same,TGI,[56],21.8 µM
same,GI50,[57],748 nM
same,TGI,[57],15.4 µM
same,GI50,[58],1500 nM
same,TGI,[58],13.2 µM
